Results from patent US6521613B2, “Lactam compounds for penetration enhancement” (Allergan, Inc., priority 2001, dated 2003).

System: rabbit cornea
Assay: Penetration enhancement testing: rate of diffusion of drug between chambers separated by rabbit cornea
Assay type: in vitro ADME
Conditions: test drugs prednisolone, guanethidine, flurbiprofen, compound used as penetration enhancer
Description: Permeation efficiencies are determined by measuring the rate of diffusion of drug between posterior and anterior chambers separated by rabbit cornea. Suitable test drugs include prednisolone, guanethidine, and flurbiprofen. Compounds II and V, described in Examples 2 and 4 above, are tested penetration enhancers. Water, acetone, ethanol, and GBR (glutathione-buffered Ringer's solution) are convenient vehicles used alone or in combination together with the test drugs and the proposed penetration enhancers. The relative rates of diffusion can be determined indirectly by measuring pH versus time in the respective chambers, or by HPLC.

Compound | penetration or permeation of test drugs relative to similar compositions without the present compounds
CCOCCOCCOCCN1CCCCCC1=O [Compound II, N-triethoxyethylether Caprolactam] | enhanced penetration or permeation
O=C1CCCCCN1CCOCCOCCO [Compound V, N-triethyleneglycol Caprolactam] | enhanced penetration or permeation
